Here are results for 2 molecules from patent US7495003B2, “8-(3-amino-piperidin-1-yl)-7-(but-2-ynyl)-xanthines, the preparation thereof and their use as pharmaceutical compositions” (Boehringer Ingelheim International GmbH, priority 2004, dated 2009).

One data set addresses T1, DPP-IV (Homo sapiens, UniProt P27487).
T1 construct: an extract of the human colon carcinoma cell line Caco-2 is used as the DPP IV source; endogenous in cells; host or cells: Caco-2 (human colon carcinoma), differentiated to induce DPP-IV expression; Nonidet-P40 solubilised extract
Put plainly: DPP-IV assay with extract of Caco-2 cells as DPP IV source (AFC substrate, fluorescence). Conditions: extract of human colon carcinoma cell line Caco-2; substrate 100 μM; 60 minutes at ambient temperature; read-out: DPP IV inhibition IC50. Format: biochemical. Here is the method: The differentiation of the cells in order to induce the DPP-IV expression was carried out in accordance with the description by Reiher et al. in an article entitled “Increased expression of intestinal cell line Caco-2”, which appeared in Proc. Natl. Acad. Sci. Vol. 90, pp. 5757-5761 (1993). The cell extract was obtained from cells solubilised in a buffer (10 mM Tris HCl, 0.15 M NaCl, 0.04 t.i.u. aprotinin, 0.5% Nonidet-P40, pH 8.0) by centrifugation at 35,000 g for 30 minutes at 4° C. (to remove cell debris).
The DPP-IV assay was carried out as follows:
50 μl of substrate solution (AFC; AFC is amido-4-trifluoromethylcoumarin), final concentration 100 μM, were placed in black microtitre plates. 20 μl of assay buffer (final concentrations 50 mM Tris HCl pH 7.8, 50 mM NaCl, 1% DMSO) was pipetted in. The reaction was started by the addition of 30 μl of solubilised Caco-2 protein (final concentration 0.14 μg of protein per well). The test substances under investigation were typically added prediluted to 20 μl, while the volume of assay buffer was then reduced accordingly. […] Then the fluorescence was measured in a Victor 1420 Multilabel Counter, with the excitation wavelength at 405 nm and the emission wavelength at 535 nm. […] The potency of the test substances in question, expressed as IC50 values, were calculated from dosage/activity curves consisting of 11 measured points in each case.

The test system of another data set is rats. The data set is described as follows: Tolerability in rats after oral administration. Format: in vivo. Conditions: oral administration of 10 mg/kg.

Structures are written as SMILES.

T1 sequence (P27487 whole entry): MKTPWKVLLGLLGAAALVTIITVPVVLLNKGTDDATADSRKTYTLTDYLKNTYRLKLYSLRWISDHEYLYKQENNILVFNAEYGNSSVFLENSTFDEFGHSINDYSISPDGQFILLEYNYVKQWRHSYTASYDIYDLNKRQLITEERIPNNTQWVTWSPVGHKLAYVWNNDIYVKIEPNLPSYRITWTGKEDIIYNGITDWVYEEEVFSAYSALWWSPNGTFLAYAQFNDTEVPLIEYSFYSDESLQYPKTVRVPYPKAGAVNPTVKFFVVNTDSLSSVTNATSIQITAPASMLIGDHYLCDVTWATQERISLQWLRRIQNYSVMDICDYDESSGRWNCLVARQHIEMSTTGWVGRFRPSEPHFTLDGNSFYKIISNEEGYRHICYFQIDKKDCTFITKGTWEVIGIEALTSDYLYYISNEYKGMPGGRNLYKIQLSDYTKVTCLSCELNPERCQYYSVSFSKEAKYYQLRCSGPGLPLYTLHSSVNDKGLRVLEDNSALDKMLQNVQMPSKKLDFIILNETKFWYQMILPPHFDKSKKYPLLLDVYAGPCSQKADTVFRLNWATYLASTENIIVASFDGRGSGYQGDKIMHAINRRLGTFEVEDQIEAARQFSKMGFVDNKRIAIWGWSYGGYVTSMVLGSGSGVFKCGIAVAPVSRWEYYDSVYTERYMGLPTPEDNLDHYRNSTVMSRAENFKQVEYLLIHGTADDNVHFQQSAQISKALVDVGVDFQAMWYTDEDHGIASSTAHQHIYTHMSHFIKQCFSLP

In general, IC50 refers to the concentration that gives 50% inhibition. Take `CC#CCn1c(N2CCC[C@@H](N)C2)nc2c1c(=O)n(Cc1nc(C)c3ccccc3n1)c(=O)n2CC(=O)OCC` [1(3), (R)-1-(4-methyl-quinazolin-2-ylmethyl)-3-(ethoxycarbonylmethyl)-7-(but-2-ynyl)-8-(3-amino-piperidin-1-yl)-xanthine]: the IC50 at DPP-IV stood at 3 nM. For `CC#CCn1c(N2CCC[C@@H](N)C2)nc2c1c(=O)n(Cc1nc(C)c3ccccc3n1)c(=O)n2CC(=O)OC` [Example 1(2), (R)-1-(4-methyl-quinazolin-2-ylmethyl)-3-(methoxycarbonylmethyl)-7-(but-2-ynyl)-8-(3-amino-piperidin-1-yl)-xanthine], the IC50 on DPP-IV came out at 3 nM. Besides, the toxic side effects result in the data set on rats is recorded as “no toxic side effects could be detected”.
